Measured values taken from patent publication US10793915B2, “Context dependent diagnostics test for guiding cancer treatment” (Eutropics Pharmaceuticals, Inc., priority 2015, dated 2020).

Assays:
[1] = test system: AML blasts from patient peripheral blood or bone marrow; assay: BH3 profiling (mitochondrial profiling): JC-1 mitochondrial depolarization (% priming) of gated AML blasts exposed to BH3 peptides; assay type: cell-based, human; settings: for Median CR (n = 23) / Median CR (n = 13): complete remission patients; for Median NR (n = 29) / Median NR (n = 18): non-responders
Description: Rows that are shaded grey are samples that failed the acceptance criteria of BH3 profiling during processing. […] Signal to noise is a measure of the DMSO JC-1 red mean fluorescence intensity (MFI) over the CCCP JC-1 read MFI. The cell counts and percent viability were determined by manual cell counting with trypan blue exclusion. Percent blasts are the percentages of CD45-dim, CD3/CD20 negative, and SSC-low of the permeabilized viable cells. All BH3 profiling was performed on those gated blast cells.
Briefly, frozen, extracted leukocyte samples were rapidly thawed, and cell viability was determined by Trypan Blue exclusion. Cells were washed in FACS buffer (1x PBS with 2% FBS) and immunophenotyped using fluorescently labeled CD45, CD3, and CD20 monoclonal antibodies. Cells were then resuspended in Newmeyer buffer (10 mM Trehalose, 10 mM HEPES, 80 mM KCl, 20 μM EGTA, 20 μM EDTA, 5 mM succinate, pH 7.4) for the perturbation step. The BH3 peptides were diluted in Newmeyer buffer to make working solutions resulting in final concentrations of: BIM (100 μM), BIM (0.1 μM), NOXA (100 μM), Puma (10 μM), HRK (100 μM), BAD (100 μM), and BID (1.0 μM). DMSO and CCCP were used as negative and positive peptide controls. Digitonin and oligomycin were added to individual FACS tubes, followed by the BH3 peptides. Cells were then added to the FACS tubes and incubated for 2 hours and 15 minutes at room temperature, in order for cell permeabilization, delivery of peptides or compounds, and mitochondrial depolarization to occur. After the incubation, JC-1 dye was prepared in Newmeyer buffer and added to directly to the treated cells. An additional tube of cells that was not treated with a peptide or compound was stained with propidium iodide (PI) to ensure that cells were effectively permeabilized by the digitonin. After 45 minutes of incubation with JC-1, cells were analyzed on a three laser BD FACSCanto II. AML Blasts were gated based on four parameters: 1) permeabilization (as determined by PI staining), 2) singlet discrimination based on SSC, 3) CD45 dim and CD3/CD20 negative, and 4) SSC low. The median JC-1 red fluorescence of the gated blast population was then used to calculate % depolarization as compared to DMSO (negative) and CCCP (positive) controls.
For each peptide, the percentage priming was calculated using the following formula that determines the priming based on the DMSO negative control as completely unprimed and the CCCP as a 100% primed reference:
For analysis, all patients not classified as CR were treated as non-responders [Minimal Residual Disease (MRD), Partial Remission (PR), and TF (treatment failure)]. Student's t-tests, Mann-Whitney rank-sum non-parametric tests, multi-variate logistic regression, and ROC curve analyses, between the BH3 peptides (and other tumor characteristics, such as cytogenetics, etc.) and response, were calculated using GraphPad Prism Version 5.04 and MedCalc Version 14.8.1.

[2] = test system: three suspension cancer cell lines; assay: PraediCare Dx FACS BH3 profiling with BH3 mimetic compound applied to permeabilized cells; assay type: cell-based; settings: cell lines primed by NOXA
Description: To further probe MCL-1 dependencies we explored the utility of certain BH3 mimetic compounds to provide an alternative to the NOXA readout to determine MCL-1 dependency in cancer cells. Our approach was to directly apply membrane permeable BH3 mimetic compounds that selectively target MCL1. Doing so would add the advantage of directly observing on target activity of the therapeutic agent.

[3] = Table 6, median percentage priming, all samples
[4] = Table 8, median percentage priming, bone marrow samples only
[5] = median percentage priming, bone marrow samples only

Row | Compound | Median CR (n = 23) [1, 3] | Median NR (n = 29) [1, 3] | Median CR (n = 13) [1, 4] | Median NR (n = 18) [1, 4] | median depolarization (priming) ([1]; all responses, all profiled patient samples) [%] | NOXA priming in patients that did not respond ([1]; bone marrow samples only) [%] | NOXA priming in patients that respond to treatment ([1]; bone marrow samples only) [%] | Median CR (n = 23) ([1]; median percentage priming of blasts, all samples (blood and marrow)) | Median NR (n = 29) ([1]; median percentage priming of blasts, all samples (blood and marrow), BIM 100/0.1 μM, NOXA 100 μM, Puma 10 μM, HRK 100 μM, BAD 100 μM, BID 1.0 μM) | Median CR (n = 13) [1, 5] | Median NR (n = 18) [1, 5] | mitochondrial response to the compound (priming) [2]
1 | NOXA: NOXA BH3 peptide, 100 μM; in some aspects AELPPEFAAQLRKIGDKVYC (SEQ ID NO:1) (listed as Homo sapiens) | 17.2 | 20.2 | 44.5 | 5.2 | 16.0 | 5.2 | 44.5 | 17.2 | 20.2 | 44.5 | 5.2 | –
2 | CCN1CCN(C(c2ccc(C(F)(F)F)cc2)c2ccc3cccnc3c2O)CC1 (stereo not drawn) [EU5346] | – | – | – | – | – | – | – | – | – | – | – | responsive
